Laboratory results as given in PubChem BioAssay AID248 (DTP/NCI, 2004).
“And” between values parts separate entries of the source, which are not always exact repeats. Equal values may be shown once. Toxic doses and inconclusive results are not listed.

System: L1210 leukemia ip in BDF1 mice, survival T/C
Assay: NCI In Vivo Anticancer Drug Screen. Data for tumor model L1210 Leukemia (intraperitoneal) in B6D2F1 (BDF1) mice
Conditions: endpoint: mean survival time, higher = longer survival
How it was run: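 Survival endpoint. Drug-treated group vs vehicle group, expressed as T divided by C. Tumor passaged by transplantation.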

[1] = dose: 100.0 mg/kg/injection, schedule: Q01DX001 (ip), vehicle: carboxymethylcellulose (CMC)
[2] = dose: 200.0 mg/kg/injection, schedule: Q01DX001 (ip), vehicle: carboxymethylcellulose (CMC)
[3] = dose: 400.0 mg/kg/injection, schedule: Q01DX001 (ip), vehicle: carboxymethylcellulose (CMC)
[4] = dose: 100.0 mg/kg/injection, schedule: Q01DX009 (ip), vehicle: saline with Tween-80
[5] = dose: 100.0 mg/kg/injection, schedule: Q04DX003 (ip), vehicle: saline with Tween-80

## NS(=O)(=O)c1ccc(NC(=O)Nc2ccc(F)cc2)cc1
[1]
  T/C: 99 % of control
dose: 100.0 mg/kg/injection, schedule: Q01DX009 (ip), vehicle: carboxymethylcellulose (CMC)
  T/C: 94 % of control and 101 % of control
dose: 100.0 mg/kg/injection, schedule: Q04DX002 (ip), vehicle: carboxymethylcellulose (CMC)
  T/C: 92 % of control and 100 % of control
dose: 100.0 mg/kg/injection, schedule: Q04DX003 (ip), vehicle: carboxymethylcellulose (CMC)
  T/C: 93 % of control
[2]
  T/C: 96 % of control
dose: 200.0 mg/kg/injection, schedule: Q01DX009 (ip), vehicle: carboxymethylcellulose (CMC)
  T/C: 94 % of control and 100 % of control
dose: 200.0 mg/kg/injection, schedule: Q04DX002 (ip), vehicle: carboxymethylcellulose (CMC)
  T/C: 100 % of control and 89 % of control
dose: 200.0 mg/kg/injection, schedule: Q04DX003 (ip), vehicle: carboxymethylcellulose (CMC)
  T/C: 104 % of control
[3]
  T/C: 99 % of control
dose: 400.0 mg/kg/injection, schedule: Q01DX009 (ip), vehicle: carboxymethylcellulose (CMC)
  T/C: 94 % of control and 101 % of control
dose: 400.0 mg/kg/injection, schedule: Q04DX002 (ip), vehicle: carboxymethylcellulose (CMC)
  T/C: 100 % of control and 102 % of control
dose: 400.0 mg/kg/injection, schedule: Q04DX003 (ip), vehicle: carboxymethylcellulose (CMC)
  T/C: 104 % of control

## N#CC1C(=O)c2ccccc2C1=O
dose: 25.0 mg/kg/injection, schedule: Q01DX009 (ip), vehicle: saline with Tween-80
  T/C: 92 % of control
dose: 50.0 mg/kg/injection, schedule: Q01DX009 (ip), vehicle: saline with Tween-80
  T/C: 91 % of control
[4]
  T/C: 89 % of control
[5]
  T/C: 94 % of control

## C1CN(C[C@H]2COC[C@@H](CN3CCOCC3)O2)CCO1
dose: 75.0 mg/kg/injection, schedule: Q04DX003 (ip), vehicle: saline
  T/C: 98 % of control
dose: 150.0 mg/kg/injection, schedule: Q04DX003 (ip), vehicle: saline
  T/C: 106 % of control
dose: 300.0 mg/kg/injection, schedule: Q04DX003 (ip), vehicle: saline
  T/C: 95 % of control

## COc1ncnc2c1ncn2C1OC(CF)C(O)C1O (stereo not drawn)
dose: 100.0 mg/kg/injection, schedule: Q01DX005 (ip), vehicle: saline
  T/C: 101 % of control
dose: 200.0 mg/kg/injection, schedule: Q01DX005 (ip), vehicle: saline
  T/C: 103 % of control

## COc1ccccc1-n1c(O)c(N=Nc2ccccc2C)c(=O)n(-c2ccc(Br)cc2)c1=S
dose: 37.5 mg/kg/injection, schedule: Q01DX001 (ip), vehicle: Klucel (hydroxypropylcellulose) (HPC)
  T/C: 94 % of control
dose: 75.0 mg/kg/injection, schedule: Q01DX001 (ip), vehicle: Klucel (hydroxypropylcellulose) (HPC)
  T/C: 106 % of control
dose: 150.0 mg/kg/injection, schedule: Q01DX001 (ip), vehicle: Klucel (hydroxypropylcellulose) (HPC)
  T/C: 87 % of control

## O=C(OC1CSC(OC(=O)c2ccccc2)CS1)c1ccccc1 (stereo not drawn)
dose: 100.0 mg/kg/injection, schedule: Q04DX002 (ip), vehicle: saline with Tween-80
  T/C: 95 % of control
dose: 200.0 mg/kg/injection, schedule: Q04DX002 (ip), vehicle: saline with Tween-80
  T/C: 95 % of control
dose: 400.0 mg/kg/injection, schedule: Q04DX002 (ip), vehicle: saline with Tween-80
  T/C: 91 % of control

## OCC(Cc1ccccc1)N1CCCCC1 (stereo not drawn)
dose: 5.0 mg/kg/injection, schedule: Q01DX001 (ip), vehicle: saline
  T/C: 109 % of control
dose: 10.0 mg/kg/injection, schedule: Q01DX001 (ip), vehicle: saline
  T/C: 96 % of control
dose: 20.0 mg/kg/injection, schedule: Q01DX001 (ip), vehicle: saline
  T/C: 96 % of control
dose: 40.0 mg/kg/injection, schedule: Q01DX001 (ip), vehicle: saline
  T/C: 96 % of control
dose: 80.0 mg/kg/injection, schedule: Q01DX001 (ip), vehicle: saline
  T/C: 96 % of control

## CC(=O)c1cccc(NC(=O)Nc2ccc(F)c([N+](=O)[O-])c2)c1
dose: 100.0 mg/kg/injection, schedule: Q01DX009 (ip), vehicle: Klucel (hydroxypropylcellulose) (HPC)
  T/C: 95 % of control
dose: 200.0 mg/kg/injection, schedule: Q01DX009 (ip), vehicle: Klucel (hydroxypropylcellulose) (HPC)
  T/C: 96 % of control

## CCC(CS(=O)(=O)O)[N+](=O)[O-] (stereo not drawn)
dose: 100.0 mg/kg/injection, schedule: Q04DX002 (ip), vehicle: saline
  T/C: 96 % of control
dose: 200.0 mg/kg/injection, schedule: Q04DX002 (ip), vehicle: saline
  T/C: 96 % of control
dose: 400.0 mg/kg/injection, schedule: Q04DX002 (ip), vehicle: saline
  T/C: 107 % of control

## C[C@]12C=CC(=O)C=C1CC[C@@H]1[C@@H]2[C@@H](O)C[C@@]2(C)[C@H]1CC[C@]2(O)C(=O)COC(=O)C1CCCC1
dose: 89.0 mg/kg/injection, schedule: Q01DX Z (sc), vehicle: distilled water + alcohol
  T/C: 111 % of control
dose: 89.0 mg/kg/injection, schedule: Q01DX Z (sc), vehicle: steriod suspending solution
  T/C: 104 % of control
dose: 130.0 mg/kg/injection, schedule: Q01DX Z (sc), vehicle: steriod suspending solution
  T/C: 98 % of control
dose: 133.0 mg/kg/injection, schedule: Q01DX Z (sc), vehicle: distilled water + alcohol
  T/C: 96 % of control
dose: 200.0 mg/kg/injection, schedule: Q01DX Z (sc), vehicle: distilled water + alcohol
  T/C: 96 % of control
dose: 200.0 mg/kg/injection, schedule: Q01DX Z (sc), vehicle: steriod suspending solution
  T/C: 112 % of control
dose: 300.0 mg/kg/injection, schedule: Q01DX Z (sc), vehicle: distilled water + alcohol
  T/C: 108 % of control
dose: 300.0 mg/kg/injection, schedule: Q01DX Z (sc), vehicle: steriod suspending solution
  T/C: 93 % of control

## CCOC(=O)C1(C(=O)OCC)C2CC(C)=C(C)CC21 (stereo not drawn)
dose: 50.0 mg/kg/injection, schedule: Q01DX009 (ip), vehicle: acetone
  T/C: 92 % of control
dose: 100.0 mg/kg/injection, schedule: Q01DX009 (ip), vehicle: acetone
  T/C: 90 % of control

## CC(=O)Nc1ccc[n+](C)c1
dose: 100.0 mg/kg/injection, schedule: Q04DX003 (ip), vehicle: saline
  T/C: 108 % of control
dose: 200.0 mg/kg/injection, schedule: Q04DX003 (ip), vehicle: saline
  T/C: 105 % of control
dose: 400.0 mg/kg/injection, schedule: Q04DX003 (ip), vehicle: saline
  T/C: 100 % of control

## Nc1ccc(C(=O)O)c(O)c1
dose: 37.88 mg/kg/injection, schedule: Q01DX Z (ip), vehicle: carboxymethylcellulose (CMC)
  T/C: 105 % of control
dose: 75.75 mg/kg/injection, schedule: Q01DX Z (ip), vehicle: carboxymethylcellulose (CMC)
  T/C: 96 % of control
[1]
  T/C: 97 % of control
[4]
  T/C: 104 % of control
[5]
  T/C: 96 % of control and 97 % of control
dose: 151.5 mg/kg/injection, schedule: Q01DX Z (ip), vehicle: carboxymethylcellulose (CMC)
  T/C: 96 % of control
[2]
  T/C: 97 % of control
dose: 200.0 mg/kg/injection, schedule: Q01DX009 (ip), vehicle: saline with Tween-80
  T/C: 97 % of control
dose: 200.0 mg/kg/injection, schedule: Q04DX003 (ip), vehicle: saline with Tween-80
  T/C: 95 % of control and 103 % of control
dose: 303.0 mg/kg/injection, schedule: Q01DX Z (ip), vehicle: carboxymethylcellulose (CMC)
  T/C: 95 % of control
[3]
  T/C: 89 % of control
dose: 400.0 mg/kg/injection, schedule: Q01DX009 (ip), vehicle: saline with Tween-80
  T/C: 95 % of control
dose: 400.0 mg/kg/injection, schedule: Q04DX003 (ip), vehicle: saline with Tween-80
  T/C: 95 % of control and 101 % of control

## Nc1nc(N)c(N=O)c(Nc2ccc(Cl)c(Cl)c2)n1
dose: 3.12 mg/kg/injection, schedule: Q01DX Z (ip), vehicle: carboxymethylcellulose (CMC)
  T/C: 117 % of control
dose: 6.25 mg/kg/injection, schedule: Q01DX Z (ip), vehicle: carboxymethylcellulose (CMC)
  T/C: 104 % of control
dose: 12.5 mg/kg/injection, schedule: Q01DX Z (ip), vehicle: carboxymethylcellulose (CMC)
  T/C: 106 % of control
dose: 25.0 mg/kg/injection, schedule: Q01DX Z (ip), vehicle: carboxymethylcellulose (CMC)
  T/C: 109 % of control
dose: 100.0 mg/kg/injection, schedule: Q01DX Z (ip), vehicle: carboxymethylcellulose (CMC)
  T/C: 89 % of control
dose: 400.0 mg/kg/injection, schedule: Q01DX Z (ip), vehicle: carboxymethylcellulose (CMC)
  T/C: 86 % of control

## COc1cc(C=Nc2cc(Br)c(OC)c(Br)c2)ccc1N(CCCl)CCCl
dose: 19.0 mg/kg/injection, schedule: Q01DX001 (ip), vehicle: carboxymethylcellulose (CMC)
  T/C: 118 % of control
dose: 29.0 mg/kg/injection, schedule: Q01DX001 (ip), vehicle: carboxymethylcellulose (CMC)
  T/C: 118 % of control
dose: 150.0 mg/kg/injection, schedule: Q01DX001 (ip), vehicle: carboxymethylcellulose (CMC)
  T/C: 150 % of control
[2]
  T/C: 104 % of control
